Data published in patent US5843696A, “Bioassay for toxic substances activated by metabolic enzyme system” (priority 1995, dated 1998).

Columns and labels:
[1] = test system: ATP-driven reduction of NAD+ to NADH by submitochondrial particles; test: RET (reverse electron transfer) test linked to cytochrome P-450 liver microsome activation
Description: The effect of this is to drive an endergonic reduction of NAD^+ to NADH as long as there is sufficient presence of ATP. For the process to be effective, therefore, there must be a sufficient quantity of NAD^+ in the sample preparation to serve as a substrate for conversion by competent enzymes. It may also be required that other enzymes such as glutamate, or alcohol or pyruvate dehydrogenases be added from exogenous sources in the event these materials are lost by rupture of the intact mitochondria during particle preparation.
For a reverse electron transport assay in which NAD^+ is to be reduced to NADH, one obvious requirement of the assay medium is NAD^+ to be a substrate. To supply a source of electrons, succinate is a preferred substrate which can be oxidized by the complex II enzymes. In order to couple the donor electrons from succinate conversion to NAD^+ reduction, it is necessary to block transport of the electron flow through complex III enzymes. This can be easily accomplished by adding antimycin, a known inhibitor of the complex III enzymes. With this combination, if the mitochondrial membranes and enzymes are otherwise functional, electrons would flow from coenzyme Q back through complex I enzymes to NAD^+. Thus NAD^+ would be reduced to NADH, as long as ATP was present to energize the conversion. Thus, the initiation of the reaction can be controlled by the timing of ATP addition.

[2] = test system: NADH oxidation by SMP; type: biochemical, beef; conditions: at the tested concentrations; no cytochrome P-450 enzymes
[3] = test system: NADH oxidase activity of submitochondrial particles (enzyme complexes I, III, and IV); test: ETr (electron transfer) test linked to cytochrome P-450 liver microsome activation; conditions: all tested concentrations; bovine serum albumin instead of microsomes

For `c1ccc2cc3ccccc3cc2c1` [anthracene], the “inhibition in RET test, secondary controls lacking liver microsomes” value ([1]; 1 ppm, no liver microsomes) was “no inhibition”.

For `Brc1ccccc1` [bromobenzine], the “inhibition relative to controls lacking the test compound” value ([1]; 69 ppm, microsomes from phenobarbital-induced rats) was 68% and the “inhibition in controls containing the test compound but lacking microsomes” value ([1]; 69 ppm, no microsomes) was 22%.

For `ClC(Cl)(Cl)Cl` [carbon tetrachloride], the “inhibition in conventional ETr protocol” value [2] was “no inhibition” and the “inhibition of NADH oxidase activity, secondary control lacking liver microsomes” value [3] was 4%.
